# Source: ChEMBL document CHEMBL5241128, “Synthesis of 1-O-acyl- and 1-oxo-kamebanin analogues and their cytotoxic activity” (Bioorg Med Chem Lett, 2023)
# System: HL-60
# Experiment: Cytotoxicity against human HL-60 cells assessed as inhibition of cell growth
# Assay type: functional, cell-based
row,SMILES,IC50 [µM]
1,C=C1C(=O)[C@@]23[C@@H]4OC(C)(C)O[C@@H]2C[C@@H]2C(C)(C)CC[C@H](OC(=O)CC)[C@@]2(C)[C@@H]3CC[C@@H]14,5.7
2,C=C1C(=O)[C@@]23[C@H](O)C[C@@H]4C(C)(C)CCC(=O)[C@@]4(C)[C@@H]2CC[C@@H]1[C@H]3O,2.2
3,C=C1C(=O)[C@@]23[C@@H]4OC(C)(C)O[C@@H]2C[C@@H]2C(C)(C)CC[C@H](OC(=O)CCCCC)[C@@]2(C)[C@@H]3CC[C@@H]14,6.9
4,C=C1C(=O)[C@@]23[C@H](O)C[C@@H]4C(C)(C)CC[C@H](OC(=O)CCCC)[C@@]4(C)[C@@H]2CC[C@@H]1[C@H]3O,2
5,C=C1C(=O)[C@@]23[C@@H]4OC(C)(C)O[C@@H]2C[C@@H]2C(C)(C)CC[C@H](OC(C)=O)[C@@]2(C)[C@@H]3CC[C@@H]14,57
6,C=C1C(=O)[C@@]23[C@@H]4OC(C)(C)O[C@@H]2C[C@@H]2C(C)(C)CC[C@H](O)[C@@]2(C)[C@@H]3CC[C@@H]14,7.3
7,C=C1C(=O)[C@@]23[C@H](O)C[C@@H]4C(C)(C)CC[C@H](OC(=O)C(C)(C)C)[C@@]4(C)[C@@H]2CC[C@@H]1[C@H]3O,2.8
8,C=C1C(=O)[C@@]23[C@@H]4OC(C)(C)O[C@@H]2C[C@@H]2C(C)(C)CC[C@H](OC(=O)C(C)(C)C)[C@@]2(C)[C@@H]3CC[C@@H]14,14
9,C=C1C(=O)[C@@]23[C@@H]4OC(C)(C)O[C@@H]2C[C@@H]2C(C)(C)CC[C@H](OC(=O)CCCC)[C@@]2(C)[C@@H]3CC[C@@H]14,7.7
10,C=C1C(=O)[C@@]23[C@@H]4OC(C)(C)O[C@@H]2C[C@@H]2C(C)(C)CCC(=O)[C@@]2(C)[C@@H]3CC[C@@H]14,36
11,C=C1C(=O)[C@@]23[C@@H]4OC(C)(C)O[C@@H]2C[C@@H]2C(C)(C)CC[C@H](OC(=O)CCC)[C@@]2(C)[C@@H]3CC[C@@H]14,7.2
12,C=C1C(=O)[C@@]23[C@H](O)C[C@@H]4C(C)(C)CC[C@H](OC(=O)CCC)[C@@]4(C)[C@@H]2CC[C@@H]1[C@H]3O,6.1
13,C=C1C(=O)[C@@]23[C@H](O)C[C@@H]4C(C)(C)CC[C@H](OC(C)=O)[C@@]4(C)[C@@H]2CC[C@@H]1[C@H]3O,5.7
14,C=C1C(=O)[C@@]23[C@H](O)C[C@@H]4C(C)(C)CC[C@H](OC(=O)CC)[C@@]4(C)[C@@H]2CC[C@@H]1[C@H]3O,5.9
15,C=C1C(=O)[C@@]23[C@H](O)C[C@@H]4C(C)(C)CC[C@H](OC(=O)CCCCC)[C@@]4(C)[C@@H]2CC[C@@H]1[C@H]3O,5.6
16,COc1cc([C@@H]2c3cc4c(cc3[C@@H](O[C@@H]3O[C@@H]5CO[C@@H](C)O[C@H]5[C@H](O)[C@H]3O)[C@H]3COC(=O)[C@H]23)OCO4)cc(OC)c1O [ETOPOSIDE],12
17,C=C1C(=O)[C@@]23[C@H](O)C[C@@H]4C(C)(C)CC[C@H](O)[C@@]4(C)[C@@H]2CC[C@@H]1[C@H]3O [KAMEBANIN],3.3

# System: HCT-116
# Experiment: Cytotoxicity against human HCT-116 cells assessed as inhibition of cell growth
# Assay type: functional, cell-based
row,SMILES,IC50 [µM]
1,C=C1C(=O)[C@@]23[C@@H]4OC(C)(C)O[C@@H]2C[C@@H]2C(C)(C)CC[C@H](OC(=O)CC)[C@@]2(C)[C@@H]3CC[C@@H]14,6.9
2,C=C1C(=O)[C@@]23[C@H](O)C[C@@H]4C(C)(C)CCC(=O)[C@@]4(C)[C@@H]2CC[C@@H]1[C@H]3O,11
3,C=C1C(=O)[C@@]23[C@@H]4OC(C)(C)O[C@@H]2C[C@@H]2C(C)(C)CC[C@H](OC(=O)CCCCC)[C@@]2(C)[C@@H]3CC[C@@H]14,6.8
4,C=C1C(=O)[C@@]23[C@H](O)C[C@@H]4C(C)(C)CC[C@H](OC(=O)CCCC)[C@@]4(C)[C@@H]2CC[C@@H]1[C@H]3O,4.2
5,C=C1C(=O)[C@@]23[C@@H]4OC(C)(C)O[C@@H]2C[C@@H]2C(C)(C)CC[C@H](OC(C)=O)[C@@]2(C)[C@@H]3CC[C@@H]14,43
6,C=C1C(=O)[C@@]23[C@@H]4OC(C)(C)O[C@@H]2C[C@@H]2C(C)(C)CC[C@H](O)[C@@]2(C)[C@@H]3CC[C@@H]14,7.6
7,C=C1C(=O)[C@@]23[C@H](O)C[C@@H]4C(C)(C)CC[C@H](OC(=O)C(C)(C)C)[C@@]4(C)[C@@H]2CC[C@@H]1[C@H]3O,4.3
8,C=C1C(=O)[C@@]23[C@@H]4OC(C)(C)O[C@@H]2C[C@@H]2C(C)(C)CC[C@H](OC(=O)C(C)(C)C)[C@@]2(C)[C@@H]3CC[C@@H]14,35
9,C=C1C(=O)[C@@]23[C@@H]4OC(C)(C)O[C@@H]2C[C@@H]2C(C)(C)CC[C@H](OC(=O)CCCC)[C@@]2(C)[C@@H]3CC[C@@H]14,10
10,C=C1C(=O)[C@@]23[C@@H]4OC(C)(C)O[C@@H]2C[C@@H]2C(C)(C)CCC(=O)[C@@]2(C)[C@@H]3CC[C@@H]14,77
11,C=C1C(=O)[C@@]23[C@@H]4OC(C)(C)O[C@@H]2C[C@@H]2C(C)(C)CC[C@H](OC(=O)CCC)[C@@]2(C)[C@@H]3CC[C@@H]14,3.9
12,C=C1C(=O)[C@@]23[C@H](O)C[C@@H]4C(C)(C)CC[C@H](OC(=O)CCC)[C@@]4(C)[C@@H]2CC[C@@H]1[C@H]3O,4.2
13,C=C1C(=O)[C@@]23[C@H](O)C[C@@H]4C(C)(C)CC[C@H](OC(C)=O)[C@@]4(C)[C@@H]2CC[C@@H]1[C@H]3O,13
14,C=C1C(=O)[C@@]23[C@H](O)C[C@@H]4C(C)(C)CC[C@H](OC(=O)CC)[C@@]4(C)[C@@H]2CC[C@@H]1[C@H]3O,9.7
15,C=C1C(=O)[C@@]23[C@H](O)C[C@@H]4C(C)(C)CC[C@H](OC(=O)CCCCC)[C@@]4(C)[C@@H]2CC[C@@H]1[C@H]3O,4
16,COc1cc([C@@H]2c3cc4c(cc3[C@@H](O[C@@H]3O[C@@H]5CO[C@@H](C)O[C@H]5[C@H](O)[C@H]3O)[C@H]3COC(=O)[C@H]23)OCO4)cc(OC)c1O [ETOPOSIDE],23
17,C=C1C(=O)[C@@]23[C@H](O)C[C@@H]4C(C)(C)CC[C@H](O)[C@@]4(C)[C@@H]2CC[C@@H]1[C@H]3O [KAMEBANIN],12
